Measured values reported in US8160709B2, “Use of electrical stimulation of the lower esophageal sphincter to modulate lower esophageal sphincter pressure” (Endostim, Inc., priority 2006, dated 2012).
Entries after “also recorded” stand apart in the source; their conditions may differ. Marks after values point to notes of the source that are not given here.

System: lower esophageal sphincter
Assay: Lower esophageal sphincter pressure recording during NGES in anesthetized dogs, after L-NAME and atropine
Format: in vivo
Method: All recordings were performed one hour after consumption of three ounces of canned dog food to prevent fluctuations in lower esophageal sphincter pressure, and under mild sedation (acepromazine 0.5 mg/kg). During electrical stimulation days, tests consisted of three periods of 20 minutes each: […] Electrical stimulation was delivered using an external pulse generator. […] Area under the curve (“AUC”) and pressure were compared among the three periods. Data are shown as mean±SD, ANOVA and t-test, p<0.05. Three female mongrel dogs underwent continuous recording of lower esophageal sphincter pressure under anesthesia. NGES was delivered to the lower esophageal sphincter for 10 minutes at: […] Changes in lower esophageal sphincter pressure during NGES are presented as percent change from preceding baseline. Results (FIG. 6) are presented as mean±SD.

[1] = in words, anesthetized dogs, L-NAME 50 mg/kg, atropine 0.05 mg/kg in presence of L-NAME
[2] = in words, anesthetized dogs, L-NAME 50 mg/kg, atropine 0.05 mg/kg in presence of L-NAME, listed as atropine
[3] = LES pressure during NGES, percent change from preceding baseline, L-NAME 50 mg/kg, atropine 0.05 mg/kg in presence of L-NAME, mean (SD)
[4] = during NGES, L-NAME 50 mg/kg, atropine 0.05 mg/kg in presence of L-NAME, mean (SD)

Row | SMILES | Effect on (baseline) lower esophageal sphincter pressure [1] | Effect on initial rise in lower esophageal sphincter pressure induced by NGES [1] | Effect on (baseline) lower esophageal sphincter pressure [2] | Effect on initial rise in lower esophageal sphincter pressure induced by NGES [2] | Initial Peak (% change) [3] | Relaxation (% change) [3] | Lower Esophageal Sphincter Pressure Baseline (anesthetized female mongrel dogs, L-NAME infusion 50 mg/kg, atropine 0.05 mg/kg in the presence of L-NAME, mean (SD)) | Peak Duration [4] | Relaxation Duration [4] | Effect on lower esophageal sphincter relaxation phase following NGES (in words, anesthetized dogs, L-NAME 50 mg/kg)
1 | CN1[C@@H]2CC[C@H]1C[C@@H](OC(=O)C(CO)c1ccccc1)C2 (stereo partly drawn) [Atropine, atropine] | lowered | abolished | reduced | reduced |  |  |  |  |  | 
2 | COC(=O)[C@@H](N)CCCNC(=N)N[N+](=O)[O-] [L-NAME] | increased | augmented; also recorded: enhanced |  |  | 76 (48.6) % change | 28.2 (34.1)** % change | 35.7 (5.1)* mmHg | 6.7 (3.9) sec | 4.4 (3.8) sec | markedly diminished or abolished; also recorded: markedly suppressed
